The text below walks through data of patent US20230365682A1, “COMBINATION THERAPY FOR TREATING COLORECTAL CANCER” (Gilead Sciences, Inc., priority 2022, published 2023).

One series concerns LS 174T cells. Kind of series: Flow cytometry of prophagocytic receptors (CALR, PS) after 24 hours of drug. The conditions noted are these: 24 hours incubation; CALR and PS staining. Format: cell-based. Here is the method: (§1) A. LS 174T cells were incubated with titrations of irinotecan for 24 hours, washed, and stained for CALR and PS. Flow cytometry was used to analyze and quantify the frequency of stained cells. The shaded areas indicate reported IC50 for each drug. B. LS-174T or HCT-116 cells were pretreated for 24 hours with irinotecan or oxaliplatin at the indicated concentration. The tumor cells were washed, CFSE labeled and cocultured with monocyte-derived macrophages at a 2:1 target to effector ratio for 2 hours. The phagocytic index, defined as the percentage of the macrophages that engulfed tumor cells out of total macrophages, was quantified using flow cytometry. 5F9, Magro=magrolimab; CALR=calreticulin; CFSE=carboxyfluorescein succinimidyl ester; hr=hour; IC50=half-maximal inhibitory concentration; MFI=median fluorescence intensity; PBS=phosphate buffered saline; PS=phosphatidyl serine; SN 38=irinotecan.

Another series has as its system LS-174T or HCT-116 cells. Briefly: In vitro phagocytosis of pretreated tumor cells by monocyte-derived macrophages. The series is classed as cell-based. The settings on record: 24 hours pretreatment; 2:1 target to effector ratio, 2 hours coculture. The method, then:
as §1

Another series deals with colorectal cancer cells. Kind of series: Cell growth inhibition (Cell-titer Glo, ATP). The series is classed as cell-based. The settings on record: 24, 48, and 72 hours of drug treatment; normalized to DMSO control. The method, then:
Tumor cells were treated with titrations of irinotecan, oxaliplatin, or vehicle control and monitored for growth after 24, 48, and 72 hours of drug treatment. Cell growth was indirectly determined using a commercially available reagent (Promega, Cell-titer Glo®) which measures intracellular adenosine triphosphate (ATP) levels and directly correlates to the number of live cells. […] DMSO=dimethyl sulfoxide; Oxa=oxaliplatin; SN-38=irinotecan.

A further series concerns mCRC. The conditions noted are these: cited from earlier work.
A short description of series [1]: Clinical safety of magrolimab. The conditions noted are these: human, in vivo. Here is the method:
In the first-in-human study of magrolimab in patients with solid tumors and lymphomas, after an initial priming dose of 1 mg/kg on the first day, magrolimab was tested as a monotherapy at weekly doses of up to 45 mg/kg. The use of an initial 1 mg/kg priming dose was integrated into the dosing regimen to mitigate the on-target anemia induced by CD47 blockade. An initial priming dose leads to elimination of aged RBCs that are sensitive to CD47 blockade and triggers reticulocytosis of young RBCs that are not affected by CD47 blockade (Chen, et al., Blood (ASH Annual Meeting Abstracts) (2018) 132 (Suppl 1):2327). […] Based on PK-PD modeling, a maintenance dose of 30 mg/kg every 2 weeks is expected to provide more than 90% occupancy of the CD47 receptor in peripheral blood and tumor tissues and thus is expected to provide maximal efficacy while maintaining adequate safety. In solid tumors where the combination therapy is given according to 3-week cycles, dosing of magrolimab every 3 weeks optimizes patient and caregiver convenience. […]
Up to 6 other patients will then be enrolled and evaluated at a lower dose level in the same manner. • Once the RP2D is determined, the sponsor will open the Randomized Cohort.

The conditions of series [2]: with 1 mg/kg priming dose, then repeated therapeutic doses; cited from earlier work.
[3] abbreviates: continuation on bevacizumab versus standard chemotherapy alone.

“Also recorded” adds a separate entry of the source.

On to `CCc1c2c(nc3ccc(OC(=O)N4CCC(N5CCCCC5)CC4)cc13)-c1cc3c(c(=O)n1C2)COC(=O)[C@]3(O)CC` [irinotecan], for which the “cell surface expression of prophagocytic receptors” value in the series on LS 174T cells is given as “upregulates the expression of prophagocytic receptors; also recorded: more effective than oxaliplatin”. Also, the “phagocytosis of colorectal cancer cells” value with LS-174T or HCT-116 cells is “promotes the in vitro phagocytosis of colorectal cancer cells; also recorded: more effective than oxaliplatin”. In addition, in the series on colorectal cancer cells, the growth inhibition result is reported as “growth inhibition; also recorded: more likely to undergo growth inhibition”.

For `O=C1[O][Pt]2([NH][C@@H]3CCCC[C@H]3[NH]2)[O]C1=O` [oxaliplatin], the growth inhibition entry with colorectal cancer cells is “growth inhibition”.

For the molecule “bevacizumab: humanized monoclonal antibody targeting circulatory VEGF and preventing tumor angiogenesis”, the PFS in the series on mCRC (continuation on bevacizumab after progression on first-line chemotherapy, standard chemotherapy alone 4.1 months) is given as 5.7 months. Further, the OS in the series with mCRC (continuation on bevacizumab after progression on first-line chemotherapy, standard chemotherapy alone 9.9 months) is listed as 11.2 months. Further, in the series on mCRC (setting [3]), the “OS HR” value is 0.81 and the “PFS HR” value is given as 0.68.

In the case of “magrolimab: humanized anti-CD47 mAb (human IgG4) that blocks the interaction of CD47 with its receptor and enables phagocytosis of human cancer cells”, in series [1], the dose-dependent toxicities entry is on record as “no dose-dependent toxicities have been observed”. Besides, the anemia result in series [2] is “initial, transient, and mild anemia that generally normalizes back to baseline over several weeks”.
